The values that follow come from article PMC11181322, “Copper(II) Complexes with Isomeric Morpholine-Substituted 2-Formylpyridine Thiosemicarbazone Hybrids as Potential Anticancer Drugs Inhibiting Both Ribonucleotide Reductase and Tubulin Polymerization: The Morpholine Position Matters” (Journal of Medicinal Chemistry, 2024).

Where two headings read alike, the source gives them in different places.

For orientation: IC50 means the midpoint of a concentration-inhibition curve. High values mean weaker potency in that assay, low ones greater potency in that assay.

For series [1], the system named is MES-SA/Dx5 cells. Put plainly: Fluorescent protein-based cytotoxicity assay, MES-SA/Dx5. The series is classed as cell-based, human. Particulars: for IC50: Homo sapiens, MES-SA/Dx5, 120 h, ± SD, n = 3; for SR, selectivity ratio IC50 (MES-SA)/IC50 (MES-SA/Dx5): in the absence of TQ. The source says: (§1) The cytotoxic activity of proligands H2L^3–H2L^6 and their copper(II) complexes 3–6 was investigated in the MES-SA (human uterine sarcoma) and in its MDR counterpart (MES-SA/Dx5) cell lines by a fluorescent protein-based assay.[73]
(§2) The human uterine sarcoma cell lines MES-SA and the doxorubicin selected MES-SA-Dx5 were obtained from ATCC (MES-SA: No. CRL-1976, MES-SA/Dx5: No. CRL-1977) and were used for the intracellular ROS generation studies. For cytotoxicity, we used the fluorescent cell lines MES-SA mCherry and MES-SA/Dx5 eGFP, which were created by lentiviral transductions of the respective genes.[73] The phenotype of the resistant cells was maintained by 500 nM doxorubicin treatment a week before use and was verified using cytotoxicity assays. Cells were cultivated at 37 °C, 5% CO2 in Dulbecco’s modified Eagle's Medium (DMEM, Sigma-Aldrich), supplemented with 10% fetal bovine serum, 5 mM glutamine, and 50 unit/mL penicillin and streptomycin (Thermo Fisher).
(§3) MES-SA mCherry and MES-SA/Dx5 eGFP cell suspensions were seeded after trypsinization at 2500 cells/20 μL density on 384-well plates, containing 20 μL of completed medium. The next day, serial dilution of the compounds was prepared and added in an additional 20 μL, with or without 0.4 μM Tariquidar. Liquid handling steps were performed by a Hamilton StarLet robot. […] The mean and standard deviation of the pIC50 values were calculated and converted to IC50 values.

Series [2] can be described thus: Proton dissociation constants (pKa) of the proligands by pH-potentiometry, UV–vis and 1H NMR titrations. Particulars: 30% (v/v) DMSO/H2O solvent mixture, I = 0.1 M (KCl), t = 25 °C. The series is classed as physicochemical. On the procedure:
The path length was 1 cm.
^1H NMR spectroscopic studies were carried out on a Bruker Avance III HD instrument. All spectra were recorded with the WATERGATE water suppression pulse scheme using sodium trimethylsilylpropanesulfonate as internal standard.

In series [3] the test system is MES-SA cells. Put plainly: Fluorescent protein-based cytotoxicity assay, MES-SA. It counts as cell-based, human. Particulars: Homo sapiens, MES-SA; 120 h; ± SD; n = 3.
From the text: as §1, §2, §3

For series [4], the target named is T1, mR2 RNR protein (Mus musculus, UniProt P11157).
T1 construct: made in house
T1 sequence (P11157 1-390): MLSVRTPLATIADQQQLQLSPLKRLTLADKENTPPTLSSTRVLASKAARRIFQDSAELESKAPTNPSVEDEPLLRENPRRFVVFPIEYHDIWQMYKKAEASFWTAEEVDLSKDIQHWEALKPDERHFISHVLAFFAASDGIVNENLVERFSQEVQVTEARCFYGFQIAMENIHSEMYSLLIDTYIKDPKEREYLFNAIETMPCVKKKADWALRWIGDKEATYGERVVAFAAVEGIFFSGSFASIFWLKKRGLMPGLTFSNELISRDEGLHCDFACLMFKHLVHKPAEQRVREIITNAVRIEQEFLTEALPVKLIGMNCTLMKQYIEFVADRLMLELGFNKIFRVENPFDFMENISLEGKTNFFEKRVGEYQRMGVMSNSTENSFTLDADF
Briefly: Tyrosyl radical reduction in mR2 RNR protein (EPR). It counts as biochemical. Particulars: 20 μM mR2, 1:1 protein-to-drug. How it is done: Since α-N-heterocyclic TSCs are very potent R2 RNR inhibitors, the time-dependent Y^• reduction of the mR2 RNR protein was measured. The effect of equimolar concentrations of the proligands H2L^3–H2L^6 and their copper(II) complexes 3–6, in the absence and presence of an external reductant DTT, is shown in Figure 7.
Figure 7 Tyrosyl radical reduction kinetics of mR2 RNR (20 μM) in the absence (triangles) and in the presence (circles) of an external reductant (2 mM DTT) at the 1:1 protein-to-drug ratio, measured by EPR spectroscopy at 30 K, for (a) H2L^3 (black), H2L^4 (red), H2L^5 (blue), and H2L^6 (green) and for (b) 3 (black), 4 (red), 5 (blue), and 6 (green).
Samples containing 20 μM mR2 in 50 mM HEPES buffer, pH 7.5/100 mM NaCl, 20 μM compound in 1% (v/v) DMSO/H2O, in the absence or presence of 2 mM DTT, were incubated for indicated times and quickly frozen in cold isopentane. The same samples were used for repeated incubations at room temperature. The experiments were performed in duplicate.

The conditions of series [5]: calculated at pH 7.4, aqueous solution ref 69, 52; cited from earlier work.
The subject of series [6] is MES-SA cells. Put plainly: Intracellular ROS generation, DCF-DA assay, MES-SA. It counts as cell-based, human. Particulars: 25 μM, 4 h treatment. On the procedure:
(§4) ROS accumulation was evaluated in both the MES-SA and MES-SA/Dx5 cell lines by using 2′,7′-dichlorodihydrofluorescein diacetate (H2DCF-DA) as a probe. This compound enters the cells by passive diffusion, and after oxidation, it is converted to the highly fluorescent 2′,7′-dichlorofluorescein (DCF), enabling the estimation of intracellular ROS levels. ROS generation was measured after a 4 h treatment with 25 μM H2L^6 or 6; tert-butylhydroperoxide (TBHP, 25 μM) was used as a positive control.
(§5) Figure 6 Intracellular ROS generation measured by the DCF-DA assay in MES-SA (filled bars) and MES-SA/Dx5 (lattice bars) cells, after a 4 h treatment with the indicated compounds at 25 μM: H2L^6 (gray), complex 6 (yellow), Triapine (green), and TBHP (brown). Values indicate fold change relative to the fluorescence of the cells treated with fluorescent probe alone (orange bars), following normalization to the initial fluorescence at the beginning of the incubation. Paired t test to the medium control was calculated; […]; **P < 0.01. Values were calculated from at least three independent experiments.
(§6) The human uterine sarcoma cell lines MES-SA and the doxorubicin selected MES-SA-Dx5 were obtained from ATCC (MES-SA: No. CRL-1976, MES-SA/Dx5: No. CRL-1977) and were used for the intracellular ROS generation studies. […]

In series [7] the test system is MES-SA/Dx5 cells. Put plainly: Intracellular ROS generation, DCF-DA assay, MES-SA/Dx5. It counts as cell-based, human. Particulars: 25 μM, 4 h treatment. How it is done: as §4, §5, §6
The target in series [8] is T1, mR2 RNR protein. Set-up: method as in PMID 21955844. Particulars: in 3 min ref 76; cited from earlier work.
On the set-up of series [9]: method as in PMID 32336116. Particulars: copper(II) complexes of the named TSCs, measured under similar conditions ref 67; cited from earlier work.
The subject of series [10] is MES-SA cells. Briefly: dNTP pools in MES-SA cell extracts. Particulars: 24 h. The series is classed as cell-based, human. An excerpt: RNR reduces NDPs to their corresponding deoxy derivatives (dNDPs), which are further converted into dNTPs.[77] Therefore, we investigated the effect of the most toxic proligand H2L^6 and its copper(II) complex 6 on cellular dNTP levels, using Triapine as a control. […] Triapine also elicits a dATP pool decrease while increasing the pools of the three other dNTP species. Decreasing the dATP pool to zero can give rise to the observed cytotoxic effect upon treatment with Triapine. Complex 6 seems to affect dNTP pools by a more complex mechanism, which is nevertheless consistent with R2 inhibition.[79]
Figure 8 Measurement of dNTP pools in MES-SA cell extracts following a 24 h treatment with proligand H2L^6, complex 6, or Triapine at the indicated concentrations. Three independent experiments were performed; error bars represent standard error; stars indicate significant changes compared to the respective control (Ctrl) at p < 0.05.
After a 24 h incubation with or without drugs, MES-SA cells were washed twice with PBS and trypsinized for 5 min. […] The pellet containing dNTPs was redissolved in 50 μL of RNase-free water and stored at −20 °C. dNTP-containing samples were measured by a nucleotide incorporation-based fluorescent method.[97] We used a long synthetic oligonucleotide (197 nt) as a template, which contains a dNTP-detection site, the sole complementary base to that of the dNTP to be quantified directly adjacent to the annealed primer. […] In addition to the limiting amount of dNTP to be quantified, the polymerization reaction mix contained the other three dNTPs in large excess. The double-stranded DNA product is detected by the EvaGreen Dye. The 2X master mix for the DNA synthesis reaction contained the following: 0.275 μM primer (Merck KGaA, Darmstadt, Germany), 0.25 μM template (IDT, Coralville, Iowa, USA), 50 μM dNTP mix (excluding the dNTP to be measured in the given experiment to limit its source to the sample), and 1.25 μM EvaGreen (Biotium). […] Fluorescence amplitude data were extracted from the Bio-Rad CFX Maestro Software and analyzed using Excel and Origin. […]

Consider `Cc1cc(NC(=S)N/N=C/c2ncccc2CN2CCOCC2)cc(C)c1O` [H2L^3], for which the 50% inhibitory concentration (IC50) with MES-SA/Dx5 cells [1] turned out to be 13.1 ± 3.2 µM; in the series on MES-SA cells [3], 2.9 ± 0.4 µM. Also, the “SR, selectivity ratio IC50 (MES-SA)/IC50 (MES-SA/Dx5)” value in the series with MES-SA/Dx5 cells [1] was found to be 0.22. Moreover, the pKa in [2] (UV–vis spectrophotometry, read-out: pKa1) was 1.53 ± 0.01; in [2] (pH–potentiometry, read-out: pKa1) it was under 2; in [2] (pH–potentiometry, read-out: pKa2) it was 5.62 ± 0.06; in [2] (pH–potentiometry, read-out: pKa3), over 10.5. For the same molecule, the “Y• reduced in mR2 protein” value at mR2 RNR protein [4] (after 15 min, in the presence of 2 mM DTT) is about 70%; at mR2 RNR protein [4] (without DTT) it was “ca. 20%”.
With `CN(C)C(=S)NN=Cc1ccccn1` [PTSC], in series [5], the pCu is on record as 13.17.
Consider `NC(=S)NN=Cc1ncccc1N` [Triapine, 3-aminopyridine-2-carboxaldehyde thiosemicarbazone, reference compound], for which the IC50 in the series with MES-SA/Dx5 cells [1] was 2.8 ± 0.5 µM; with MES-SA cells [3] it was 0.52 ± 0.1 µM. Also, the “SR, selectivity ratio IC50 (MES-SA)/IC50 (MES-SA/Dx5)” value with MES-SA/Dx5 cells [1] is recorded as 0.18. The “Intracellular ROS generation” value in the series with MES-SA cells [6] and in the series on MES-SA/Dx5 cells [7] was “failed to induce ROS” throughout. For the same molecule, the “mR2 Y• reduced” value on mR2 RNR protein [8] is 100%. For the same molecule, the “kobs, reduction by GSH” value in series [9] is 0.10 min^–1. Also, the dATP pool entry with MES-SA cells [10] was “decrease”. Besides, the “pools of the three other dNTP species” value with MES-SA cells [10] is listed as “increasing”.
